This is an account of results in patent US10335380B2, “Compounds suitable for the treatment of myeloproliferative neoplasms as well as methods for the diagnosis/prognosis of myeloproliferative neoplasms” (CNIC Fundacion Centro Nacional De investigaciones …, priority 2013, dated 2019).

In data set [1] the test system is mice transplanted with MPN BM cells (JAK2-V617F). Description: In vivo pharmacological treatments of mice transplanted with MPN (Mx1-cre;JAK2-V617F) BM cells. More on the design: species or system mouse. An excerpt:
In Mx1-cre; JAK2-V617F double-transgenic mice, expression of the human JAK2-V617F mutation is driven by the endogenous Jak2 promoter and can be conditionally expressed in haematopoietic cells upon Myxovirus resistance-1 (Mx1)-driven Cre recombinase activation by polyinosine-polycytosine (plpC). PlpC-induced transgenic mice and wild-type mice transplanted with BM cells from these mice develop progressive symptoms of PV19,20.
Age-matched, female wild-type C57BL/6J or Nes-gfp mice were used as recipients in bone marrow (BM) transplantation assays and for in vivo pharmacological treatments. […] Vehicle (saline solution) daily injections were performed in the same way. Unless indicated, treatment was initiated 4 weeks posttransplant, when animals evidenced peripheral blood signs of MPN. Mice were randomly distributed prior to treatment initiation, and disease development was monitored over time in peripheral blood samples, using an automated blood counter. […] The neuroprotective drug 4-methylcatechol (10 μg kg-1, i.p.) was injected once daily. The JAK inhibitor INCB018424 (S-Ruxilitinib, Abmole Bioscience) was administered by oral gavage (30 mg kg-1, twice per day separated 10-12 hours) in 0.5% hydroxypropylmethylcellulose (Sigma) after solubilisation in DMSO. The IL-1 receptor antagonist (Kineret, Sobi, Stockholm, Sweden) was administered by subcutaneous osmotic pumps (Alzet) infusing a continuous dosing of 40 mg kg-1 per day. Mice were sacrificed at different time points and subjected to complete necropsy; BM and spleen were analysed by histology and flow cytometry; femora and skull were used for immunostainings, and haematopoietic and stromal cells were additionally used for functional assays ex vivo.
BM cell extraction, flow cytometry and fluorescence-activated cell sorting For haematopoietic cell recovery, bones were crushed in a mortar, filtered through a 40-μm mesh to obtain single cell suspensions, and depleted of red blood cells by lysis in 0.15 M NH4Cl for 10 min at 4° C. Spleen samples were homogenised and filtered prior to lysis; blood samples were directly lysed. Cells (1-2×10^6 cells per sample) were incubated with the appropriate dilution (2-5 μg ml-1) of fluorescent antibody conjugates and 4′,6-diamidino-2-phenylindole (DAPI) for dead cell exclusion, and analysed on LSRFortessa flow cytometer (BD Biosciences, Franklin Lakes, N.J.) equipped with FACSDiva Software (BD Biosciences). […] Biotinylated antibodies were detected with fluorochrome-conjugated streptavidin (BD Biosciences). Phenotypic populations of HSC were defined as long-term haematopoietic stem cells (HSCs) (lin− Sca1+c-kit+ (LSK) CD34− Flt3−), short-term HSCs (LSK CD34+ Flt3−) and multipotent progenitors (MPP) (LSK CD34+ Flt3+).
Cells were filtered through a 40-μm mesh and erythrocytes were lysed as previously described. The resulting bone marrow-enriched cell suspensions were pelleted, washed and resuspended in PBS buffer containing 2% foetal calf serum (FCS) for further analyses. […] BM stromal CD45− CD31− Ter119− cells were further purified according to GFP fluorescence using a FACS Aria cell sorter (BD Bioscience). For the determination of apoptotic cells, samples were washed with PBS after surface antibody staining and subsequently stained with Annexin V-Pacific Blue and SYTOX AADvanced (Invitrogen, Life Technologies, Paisley, UK). For functional assays, cells were enriched by immunomagnetic depletion using biotinylated CD45 and Ter119. For immunophenotypic characterisation, total BM samples were studied by flow cytometry using the following additional antibodies: CD63 (NVG-2), CD105 (MJ7/18), CD140a (APA5), Vcam, CD51 (RMV-7), all from Biolegend; and CD90.2 from BD Biosciences.
Immunofluorescence staining of cryostat sections was performed. For whole mount staining of the calvaria, all incubation times were extended. The antibodies used were TH (Rabbit pAb, Millipore) and GFAP (Rabbit pAb, Dako).

Data set [2] relates to CD45+ haematopoietic cells from BM of Nes-gfp;Mx1-cre;JAK2-V617F mice and control littermates. Description: Colony-forming units in culture (CFU-C) with drug added in vitro. Type of data set: cell-based, mouse. The note with it: scored after one week in culture. On the procedure:
Colony-forming units in culture (CFU-C) assay was performed. […] Colonies of more than 50 cells were scored after 7 days of incubation at 37° C., 5% CO2, 20% O2 in a water-jacketed incubator. For CFU-F assays, BM CD45− Ter119− cells were plated into 6-well dishes and cultured in maintenance medium (α-MEM, 15% FCS with antibiotics). After 10-12 days in culture, adherent cells were fixed with 100% methanol and stained with Giemsa stain (Sigma) to reveal fibroblastic clusters. Colonies with more than 50 cells were scored as CFU-F.

Data set [3] addresses murine receptor (β3-adrenergic) (Mus musculus, UniProt P25962). The note with it: cited from earlier work.
The conditions of data set [4]: cited from earlier work.
A further data set has as its system BM-derived Schwann cells. Description: Co-culture of BM-derived Schwann cells with JAK2V617F+ BM LSK cells, apoptosis by TUNEL. Type of data set: cell-based, mouse. The note with it: IL1ra 200 ng ml-1, 24 h co-culture. On the procedure: For co-culture of BM-derived Schwann cells and MSCs with BM LSK cells from control and mutant mice, neonatal BM CD45− CD31− Ter119− Nes-GFP+ Pdgfrα−/+ cells containing Schwann cell precursors and MSCs, respectively (Isern J et al., submitted), were sorted and cultured under Schwann cell differentiation conditions, as previously described 34, or mesenchymal culture conditions, in MEMα supplemented with 10 ng ml-1 PDGFAB, 15% FBS. Both were co-cultured for 24 h with primary BM LSK cells isolated by FACS from control or mutant mice. Schwann cells derived from sorted GFP+ Pdgfrα− BM precursors were additionally incubated with IL1ra (200 ng ml-1) for the co-culture period. After 24 h of co-culture, haematopoietic cells were washed away and the remaining adherent Schwann cells were fixed and analysed for apoptosis by TUNEL.

Setting [5] is: IL1ra 40 mg kg-1 per day, subcutaneous osmotic pumps, 18 weeks.

Chain of murine receptor (β3-adrenergic) (P25962 whole entry): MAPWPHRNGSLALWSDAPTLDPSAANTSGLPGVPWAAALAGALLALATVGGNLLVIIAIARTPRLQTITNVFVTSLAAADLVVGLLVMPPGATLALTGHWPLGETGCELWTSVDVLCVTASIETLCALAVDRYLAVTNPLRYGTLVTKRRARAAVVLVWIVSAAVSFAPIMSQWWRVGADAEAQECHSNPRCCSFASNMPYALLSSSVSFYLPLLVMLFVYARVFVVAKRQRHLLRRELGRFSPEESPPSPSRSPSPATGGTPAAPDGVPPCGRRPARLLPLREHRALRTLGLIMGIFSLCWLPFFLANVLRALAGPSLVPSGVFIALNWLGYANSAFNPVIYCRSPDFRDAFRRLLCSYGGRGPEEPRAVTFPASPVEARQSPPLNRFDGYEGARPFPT

For `Cc1ccc(O)c(O)c1` [4-methylcatechol], the “incipient MPN signs (haematological parameters)” value in data set [1] (8 weeks after transplantation, treatment for the last 4 weeks) is reported as “improved”. In data set [1] (early treatment, 4 weeks, BRL37344 2 mg kg-1 twice a day, 4-methylcatechol 10 μg kg-1 once daily), the “mutant haematopoietic progenitor expansion” value is “prevented”. For the same compound, the “BM Schwann cells (Gfap immunostaining)” value in data set [1] (symptomatic MPN mice, 4-methylcatechol 10 μg kg-1 i.p. once daily over a month) is recorded as “preserved”. Besides, in data set [1] (symptomatic MPN mice, treatment started 4 weeks after transplantation, BRL37344 2 mg kg-1 i.p. twice a day, 4-methylcatechol 10 μg kg-1 i.p. once daily), the MPN-associated neutrophilia result is listed as “prevented”. In addition, the “growth of cultured haematopoietic progenitors (CFU-C)” value in data set [2] was “neither 4-methylcatechol nor BRL37344 affected”.

With `Nc1nc(CC(=O)Nc2ccc(CCNC[C@H](O)c3ccccc3)cc2)cs1` [Mirabegron], the MPN progression entry in data set [1] (BRL37344 or Mirabegron 2 mg kg-1 i.p. twice a day) is listed as “delays”. Besides, the “several MPN markers (blood counts)” value in data set [1] (Mirabegron 2 mg kg-1 i.p. twice a day, last two weeks, 8 weeks after transplantation, to lower extent than BRL37344) is “improved”. In addition, in data set [3], the “affinity for the murine receptor” value is “relatively low”. In addition, the solubility result in data set [4] was “poor”.

As to “interleukin-1 receptor antagonist: IL-1 receptor antagonist (Kineret, Sobi, Stockholm, Sweden)”, in data set [1] (setting [5]), the “BM MSC frequency” value is reported as “increased” and the “caspase-1 mRNA expression in haematopoietic progenitors” value is given as “reduced”. Also, the platelet counts result in data set [1] (IL1ra 40 mg kg-1 per day, subcutaneous osmotic pumps, 18 weeks, starting 2 weeks after transplant) is reported as “reduced”. For the same compound, the “3-fold higher apoptotic rate of Schwann cells co-cultured with JAK2V617F+ haematopoietic progenitors” value in the data set on BM-derived Schwann cells was “blocked”.
